Data published in patent publication US20040127492A1 (Pharmacia Corporation, priority 2002, published 2004).
pIC50: −log10 of the molar value. Like-named read-outs stand apart in the source and are kept apart here.

Assays:
MAPKAPK2 (MK-2) = MAPKAPK2 (MK-2) (Homo sapiens, UniProt P49137); test: Determination of MK-2 IC50 (HSP-peptide phosphorylation, anion exchange resin capture assay); type: biochemical
Outline: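 MAPKAPK2, preactivated by p38α with 0.25 mM ATP for 1 h at 30° C, used at 15 nM to phosphorylate HSP-peptide with 0.03 mM ATP plus [γ33P]ATP, pH 7.5, 2% DMSO, 30 min at 30° C. Labelled peptide counted after anion-exchange resin capture; IC50 from six ten-fold dilutions, triplicate.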

MK-3 = MK-3 (Homo sapiens, UniProt Q16644); test: MK-3 inhibition IC50 (similar method to MK-2, with appropriate modifications); type: biochemical; conditions: read-out: MK-3 Avg. IC50
Experimental: In practice, the selectivity of a cyclic pyrazole MK-2 inhibitor varies depending upon the condition under which the test is performed and on the inhibitors being tested. However, for the purposes of this specification, the selectivity of a cyclic pyrazole MK-2 inhibitor inhibitor can be measured as a ratio of the in vitro or in vivo IC50 value for inhibition of MK-3, divided by the IC50 value for inhibition of MK-2 (IC50 MK-3/IC50 MK-2). […] The MK-2 or MK-3 inhibiting activity of any of the compounds described herein can be determined by any one of several methods that are well known to those having skill in the art of enzyme activity testing. […] A similar method, with appropriate modifications, Can be used to measure MK-3 inhibitory activity. In addition, the efficacy of one of the present MK-2 inhibiting compounds in therapeutic applications can be determined by testing for inhibition of TNFα production in cell culture and in animal model assays.

[1] = Table 2, pyrazolylpyrazole MK-2 inhibitors, read-out: MK-2 Avg. IC50
[2] = Table 2, pyrazolylpyrazole MK-2 inhibitors
[3] = Table 1, phenoxypyrazole MK-2 inhibitors, read-out: MK-2 Avg, IC50
[4] = Table 1, phenoxypyrazole MK-2 inhibitors

Sequence of MAPKAPK2 (MK-2) (P49137 whole entry, species assumed): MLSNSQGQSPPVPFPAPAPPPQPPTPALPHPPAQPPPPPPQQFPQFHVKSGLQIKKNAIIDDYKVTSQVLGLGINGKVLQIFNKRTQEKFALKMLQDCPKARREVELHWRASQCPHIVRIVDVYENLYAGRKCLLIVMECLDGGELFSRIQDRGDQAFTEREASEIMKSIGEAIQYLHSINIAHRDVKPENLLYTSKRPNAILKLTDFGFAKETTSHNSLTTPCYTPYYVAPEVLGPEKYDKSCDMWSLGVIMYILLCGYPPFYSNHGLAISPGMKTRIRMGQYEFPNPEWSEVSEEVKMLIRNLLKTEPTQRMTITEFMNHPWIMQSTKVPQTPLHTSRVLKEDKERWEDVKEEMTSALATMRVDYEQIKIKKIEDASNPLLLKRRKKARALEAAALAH
Sequence of MK-3 (Q16644 whole entry, species assumed): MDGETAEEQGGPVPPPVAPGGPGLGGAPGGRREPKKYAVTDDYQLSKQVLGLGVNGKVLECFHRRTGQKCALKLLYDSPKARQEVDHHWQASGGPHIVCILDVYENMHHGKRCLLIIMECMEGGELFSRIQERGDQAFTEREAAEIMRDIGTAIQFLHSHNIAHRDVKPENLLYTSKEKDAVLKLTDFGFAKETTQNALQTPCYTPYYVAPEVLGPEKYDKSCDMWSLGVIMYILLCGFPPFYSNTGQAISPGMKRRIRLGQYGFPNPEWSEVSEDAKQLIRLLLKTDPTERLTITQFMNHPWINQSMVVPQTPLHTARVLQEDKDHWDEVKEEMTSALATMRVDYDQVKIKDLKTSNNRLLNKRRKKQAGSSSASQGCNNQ

Compound: COc1cccc(-c2cc3c(cn2)CCc2c-3nn(CCCN)c2C(=O)O)c1 [Example 14]
- pIC50 (MAPKAPK2 (MK-2); read-out: MK-2 Avg. IC50): 7.25
- pIC50 (MK-3): 6.06

Compound: O=C1NCCn2nc3c(c21)CCc1[nH]ncc1-3 [Example 14]
- pIC50 (MAPKAPK2 (MK-2); [1]): 4.70
- pIC50 (MK-3; [2]): 3.86

Compound: C=CCn1nc2c(c1C(=O)O)CCc1[nH]ncc1-2 [Example 15]
- pIC50 (MAPKAPK2 (MK-2); [1]): 4.64
- pIC50 (MK-3; [2]): 3.87

Compound: NCCCn1nc2c(c1C(=O)O)CCc1cc(O)c(-c3ccc(Cl)cc3)cc1-2 [Example 15]
- pIC50 (MAPKAPK2 (MK-2); [3]): 4.96
- pIC50 (MK-3; [4]): 3.96

Compound: NCCCn1nc2c(c1C(=O)O)CCc1cnc(-c3ccc(C(F)(F)F)cc3)cc1-2 [Example 15]
- pIC50 (MAPKAPK2 (MK-2); read-out: MK-2 Avg. IC50): 7.25
- pIC50 (MK-3): 6.68

Compound: CS(=O)(=O)c1cccc(-c2cc3c(cc2O)CCc2c-3nn(CCCN)c2C(=O)O)c1 [Example 16]
- pIC50 (MAPKAPK2 (MK-2); [3]): 4.89
- pIC50 (MK-3; [4]): < 3.70

Compound: NCCCn1nc2c(c1C(=O)O)CCc1cnc(Nc3ccccc3)cc1-2 [Example 16]
- pIC50 (MAPKAPK2 (MK-2); read-out: MK-2 Avg. IC50): 7.13
- pIC50 (MK-3): 5.94

Compound: O=C1NCCCn2nc3c(c21)CCc1[nH]nc(SCc2ccccc2)c1-3 [Example 16]
- pIC50 (MAPKAPK2 (MK-2); [1]): 4.62
- pIC50 (MK-3; [2]): 4.25

Compound: NC(=O)c1[nH]nc2c1CCc1[nH]ncc1-2 [Example 17]
- pIC50 (MAPKAPK2 (MK-2); [1]): 4.55
- pIC50 (MK-3; [2]): 3.89

Compound: NCCCn1nc2c(c1C(=O)O)CCc1cc(O)c(-c3ccc(F)c(F)c3)cc1-2 [Example 17]
- pIC50 (MAPKAPK2 (MK-2); [3]): 4.85
- pIC50 (MK-3; [4]): 3.78

Compound: NCCCn1nc2c(c1C(=O)O)CCc1cnc(-c3ccc(F)c(F)c3)cc1-2 [Example 17]
- pIC50 (MAPKAPK2 (MK-2); read-out: MK-2 Avg. IC50): 7.10
- pIC50 (MK-3): 5.76

Compound: O=C(O)c1ccc(-c2ccc(CCNCCCn3nc4c(c3C(=O)O)CCc3cnccc3-4)cc2)cc1 [Example 18]
- pIC50 (MAPKAPK2 (MK-2); read-out: MK-2 Avg. IC50): 7.10
- pIC50 (MK-3): 5.66

Compound: NCCCn1nc2c(c1C(=O)O)CCc1cc(O)c(-c3cccc(N)c3)cc1-2 [Example 19]
- pIC50 (MAPKAPK2 (MK-2); [3]): 4.76
- pIC50 (MK-3; [4]): 3.78

Compound: O=C(O)c1nn(C2CCN(C(=O)OCc3ccccc3)CC2)c2c1CCc1c-2cnn1C(c1ccccc1)(c1ccccc1)c1ccccc1 [Example 19]
- pIC50 (MAPKAPK2 (MK-2); [1]): 4.33
- pIC50 (MK-3; [2]): ≤ 3.70

Compound: O=C1NCCn2nc3c(c21)CCc1cnc(-c2ccc(O)cc2)cc1-3 [Example 19]
- pIC50 (MAPKAPK2 (MK-2); read-out: MK-2 Avg. IC50): 7.06
- pIC50 (MK-3): 6.06

Compound: CCOC(=O)c1c2c(nn1CCCN)-c1c(SC)n[nH]c1CC2 [Example 20]
- pIC50 (MAPKAPK2 (MK-2); [1]): 4.26
- pIC50 (MK-3; [2]): ≤ 3.70

Compound: NC(=O)c1[nH]nc2c1CCc1c-2ccc(O)c1Br [Example 20]
- pIC50 (MAPKAPK2 (MK-2); [3]): 4.75
- pIC50 (MK-3; [4]): < 3.70

Compound: CNc1ccc(-c2cc3c(cc2O)CCc2c-3nn(CCCN)c2C(=O)O)cc1 [Example 21]
- pIC50 (MAPKAPK2 (MK-2); [3]): 4.75
- pIC50 (MK-3; [4]): < 3.70

Compound: O=C(O)c1c2c(nn1C1CCNCC1)-c1cn[nH]c1CC2 [Example 21]
- pIC50 (MAPKAPK2 (MK-2); [1]): 4.22
- pIC50 (MK-3; [2]): ≤ 3.70

Compound: O=C(O)c1c2c(nn1CCCNCCc1ccc(-c3cccc(C(F)(F)F)c3)cc1)-c1ccncc1CC2 [Example 21]
- pIC50 (MAPKAPK2 (MK-2); read-out: MK-2 Avg. IC50): 6.99
- pIC50 (MK-3): 4.98

Compound: CC(C)(C)c1ccc(-c2cc3c(cc2O)CCc2c-3nn(CCCN)c2C(=O)O)cc1 [Example 22]
- pIC50 (MAPKAPK2 (MK-2); [3]): 4.73
- pIC50 (MK-3; [4]): 3.92

Compound: CC(C)(C)c1ccc(-c2cc3c(cn2)CCc2c-3nn(CCCN)c2C(=O)O)cc1 [Example 22]
- pIC50 (MAPKAPK2 (MK-2); read-out: MK-2 Avg. IC50): 6.95
- pIC50 (MK-3): 6.37

Compound: O=C(O)c1nn(CC(F)(F)F)c2c1CCc1c-2cnn1C(c1ccccc1)(c1ccccc1)c1ccccc1 [Example 22]
- pIC50 (MAPKAPK2 (MK-2); [1]): 4.17
- pIC50 (MK-3; [2]): 3.71

Compound: NC(=O)c1nn(CCO)c2c1CCc1[nH]ncc1-2 [Example 23]
- pIC50 (MAPKAPK2 (MK-2); [1]): 4.14
- pIC50 (MK-3; [2]): ≤ 3.70

Compound: NCCCn1nc2c(c1C(=O)O)CCc1cc(O)c(-c3ccncc3)cc1-2 [Example 23]
- pIC50 (MAPKAPK2 (MK-2); [3]): 4.73
- pIC50 (MK-3; [4]): < 3.70

Compound: O=C(O)c1c2c(nn1CCCNCCc1ccc(-c3ccoc3)cc1)-c1ccncc1CC2 [Example 23]
- pIC50 (MAPKAPK2 (MK-2); read-out: MK-2 Avg. IC50): 6.90
- pIC50 (MK-3): 5.58

Compound: NC(=O)c1ccc(-n2nc(C(N)=O)c3c2-c2cn[nH]c2CC3)cc1 [Example 24]
- pIC50 (MAPKAPK2 (MK-2); [1]): 4.11
- pIC50 (MK-3; [2]): ≤ 3.70

Compound: O=C(O)c1[nH]nc2c1CCc1cc(O)ccc1-2 [Example 24]
- pIC50 (MAPKAPK2 (MK-2); [3]): 4.71
- pIC50 (MK-3; [4]): < 3.70

Compound: O=C(O)c1c2c(nn1CCCNCCc1ccc(-c3cccc(Cl)c3)cc1)-c1ccncc1CC2 [Example 24]
- pIC50 (MAPKAPK2 (MK-2); read-out: MK-2 Avg. IC50): 6.89
- pIC50 (MK-3): 5.23

Compound: COc1ccc(-c2cc3c(cn2)CCc2c-3nn3c2C(=O)NCCC3)cc1 [Example 25]
- pIC50 (MAPKAPK2 (MK-2); read-out: MK-2 Avg. IC50): 6.85
- pIC50 (MK-3): 5.19

Compound: C=CCn1nc(C(N)=O)c2c1-c1cn[nH]c1CC2 [Example 26]
- pIC50 (MAPKAPK2 (MK-2); [1]): 4.02
- pIC50 (MK-3; [2]): 4.31
